Consider 91 compounds from a melting point compilation (Tetko et al.; mined from patent text by program, amines drawn as free bases though some values may be those of a salt).

Usually melting point stands for the temperature of the solid-liquid transition. For the compound `Cn1nc(NC(=O)Nc2ccccc2)nc1NCCCOc1cccc(CN2CCCCC2)c1`, the melting point was in the range of 137 to 139 °C.

As to `Cn1nc(-c2cc(Cl)c(F)cc2F)c(Cl)c1C(F)(F)F`, the melting point fell in the range of 50 to 51 °C.

Compound `CC1(C)CC(c2ccccn2)c2cc(C(=O)O)ccc2O1` (stereo unspecified) came in with a melting point of 207 to 208 °C.

In the case of `CN(C(=O)c1ccc(C(=O)C(C)(C)C)cc1)C(=O)c1ccc(C(=O)C(C)(C)C)cc1`, the melting point came out at 122 °C.

For `Cc1nc2cc(NC(=O)c3cc4cccnc4n3Cc3cccc(F)c3)ccc2n1C`, the melting point is 242 to 244 °C.

As for `OCc1c(C2CC2)nn2ccc3c(c12)CCO3`, the melting point is 139 to 140 °C.

In turn, `CC(=O)OCCn1ccc(=O)c(OCc2ccccc2)c1C(OC(C)=O)c1cccc(F)c1` (stereo unspecified) gave a melting point of 148 to 149 °C.

Compound `CCN1C(=O)C(C)(C)C(=O)N(C)c2cc(CCN(CCn3cc(C)c4oc(C)cc4c3=O)Cc3cc(C)nn3C)ccc21` came in with a melting point of 168 to 170 °C.

The compound `Clc1ccc(Cl)c(CN2CCNc3ncc(-c4ccc(Cl)nc4)cc32)c1` returned a melting point of 205 °C.

`COc1ccc(Cn2cc(C(F)(F)F)ccc2=O)cc1` registered a melting point of 84.2 to 86.1 °C.

In turn, `CCCC(=O)c1cnc2ccc(O)cc2c1Nc1ccc(O)cc1C` came in with a melting point of 242 to 244 °C.

Take `CN(C)CCCOc1ccc(-c2nnc(CSCCOc3ccccc3)n2Cc2ccccc2)cc1`: the melting point fell in the range of 88 to 92 °C.

`Nc1nc2[nH]c(CCCCc3ccc(C(=O)N[C@@H](CCC(=O)O)C(=O)O)o3)cc2c(=O)[nH]1` yielded a melting point of 174 to 175 °C.

As to `O=C(O)c1ccc(C(c2ccccc2)(C(F)(F)F)C(F)(F)F)cc1`, the melting point was in the range of 153 to 155 °C.

In turn, `O=C(c1cc(N2CCCC(F)(F)C2)ccn1)N(O)Cc1ccccc1` registered a melting point of 140 to 145 °C.

For the compound `Nc1c(Br)cc(Br)cc1S(=O)(=O)C(F)F`, the melting point is 84 to 88 °C.

Turning to `COCOc1ccc(N(C)S(=O)(=O)c2ccc(C)cc2)c([N+](=O)[O-])c1`, the melting point was in the range of 110 to 112 °C.

`CCCCCCCCCCCCCCN(CCCCCCCCCCCCCC)S(=O)(=O)c1ccc(C)cc1` showed a melting point of 54 °C.

`c1ncn(-c2cc3cc[nH]c3cn2)n1` showed a melting point of 203 to 205 °C.

`CC12CCC=CC1=CCC1C2CCC2(C)C(OS(=O)(=O)C(F)(F)F)=CCC12` (stereo unspecified) displayed a melting point of 75 to 76 °C.

In the case of `O=C(CCl)Nc1cscn1`, the melting point lay in the range of 115 to 119 °C.

Turning to `CC1(C)NS(=O)(=O)c2cc([N+](=O)[O-])ccc21`, the melting point was 187 °C.

Take `CC(C(=O)O)c1ccc2oc(Cc3c(Cl)cccc3Cl)nc2c1` (stereo unspecified): the melting point is 122 to 124 °C.

On to `Cn1c2ccccc2c(=O)c2cccn21`, for which the melting point lay within 154 to 156 °C.

`N#Cc1c(C(=Nc2ccccc2)c2ccccc2)n(O)c2ccccc12` showed a melting point of 188 to 190 °C.

For the compound `CCOc1cccc(CC(=O)O)c1OCCCc1cn(-c2ccc(C(F)(F)F)cn2)nc1C(CC)CC`, the melting point was in the range of 83 to 84 °C.

Take `CC(=O)NCCc1ccc(C=CC(=O)O)cc1`: the melting point is 206 to 208 °C.

`Cc1nc(N2CCN(Cc3ccc(C(=O)N4CCCCC4)cc3)C2=O)sc1-c1ccn[nH]1`: the melting point fell in the range of 156 to 157 °C.

The compound `Nc1ccc(-c2cccc(C(F)(F)F)c2)nn1` gave a melting point of 138 to 139 °C.

Compound `CC1(C)Oc2ccc([N+](=O)[O-])cc2C(Br)C1Br` (stereo unspecified) had a melting point of 130 to 134 °C.

Compound `O=C1c2ccccc2C(=O)N1OC1C=CCCC1` (stereo unspecified) yielded a melting point of 87 °C.

On to `O=c1cccc(-c2ccccn2)[nH]1`, for which the melting point was 124 to 127 °C.

`COc1ccccc1NC(=S)NC(NC(=O)c1ccc(C)cc1)C(F)(F)F` (stereo unspecified) yielded a melting point of 212 to 214 °C.

With `O=c1oc2ccccc2c2c1CNCC2`, the melting point is 125 to 128 °C.

As for `CCOC(=O)c1cnn(-c2ccc(OCC(C)(C)C)c(C#N)c2)c1Cl`, the melting point is 90 to 92 °C.

Regarding `CCCCCN(CCCCC)CCCOC(=O)c1ccc2c(c1)-c1ccc(C(=O)OCCCN(CCCCC)CCCCC)c3cccc-2c13`, the melting point lay within 148 to 151 °C.

With `CCOC(=O)C(=O)c1c[nH]c2c(CC)cccc12`, the melting point lay in the range of 152 to 154 °C.

For `COc1cc(C=Cc2conc2C)cc(Br)c1O`, the melting point was 178 to 180 °C.

As for `COc1cccc(S(=O)(=O)N(CC(N)=O)c2ccc(Cl)cc2Cc2ccccc2Cl)c1`, the melting point is 65.7 °C.

In turn, `CC(=O)OC1CC(COC(=O)c2ccccc2)OC1n1cc(F)c(=O)[nH]c1=O` (stereo unspecified) had a melting point of 68 to 70 °C.

Turning to `CCOC(=O)C(=CNc1ccc(OC)c(C)n1)C(=O)OCC`, the melting point is 109 to 110 °C.

In turn, `Cc1nc2ccccc2n1Cc1c(F)cccc1F` gave a melting point of 99 °C.

In the case of `O=C(C1CCCCC1)N1CC(=O)N2CCOc3ccccc3C2C1` (stereo unspecified), the melting point is 92 to 93 °C.

Regarding `CC(=NOC(C)C)c1ccc2c(c1)ncn2-c1cccc(-c2cccnc2)c1`, the melting point lay in the range of 77 to 80 °C.

Compound `CC(Oc1ncn(-c2cccc(Br)c2)n1)C(=O)O` (stereo unspecified) displayed a melting point of 198 to 200 °C.

Consider `CCOC(=O)c1c2n(c3cc(N4CCN(CC(C)=O)CC4)c(F)cc3c1=O)CS2`, for which the melting point was in the range of 170 to 172 °C.

Compound `CC(=O)O[C@H]1CS[C@H](C(=O)O)O1` (relative stereo) showed a melting point of 111 °C.

In the case of `O=[N+]([O-])c1cc(CCC(O)=S)cc(O)c1O`, the melting point was in the range of 91 to 93 °C.

As for `COC(=O)Nc1nc2cc(SCC3CCCCC3)ccc2[nH]1`, the melting point is 200 to 204 °C.

Consider `O=c1cc(-c2ccccc2)oc2cccc(OCCO)c12`, for which the melting point came to 124 °C.

The compound `CC(C)(C)c1cc(C(=O)NCc2cccc(N)c2)cc(C(C)(C)C)c1O` registered a melting point of 171 to 172 °C.

For the compound `O=[N+]([O-])c1ccc(OCC(F)(F)F)c([N+](=O)[O-])c1`, the melting point is 76 to 77 °C.

Regarding `Cc1cccc2c1CCn1cc(-c3ccccc3)nc1C2OC1CCN(C)CC1` (stereo unspecified), the melting point is 71 °C.

In turn, `COC(=O)C1=CCC(C#N)(c2ccc(OC)c(OC3CCCC3)c2)CC1` (stereo unspecified) displayed a melting point of 128 to 129 °C.

`CN(CCCCOCC(=O)O)c1nnc(-c2ccccc2)c(-c2ccccc2)n1` displayed a melting point of 108 to 110 °C.

Compound `NCc1ccc(Nc2ncnc3[nH]cc(C(=O)c4ccccc4)c23)cc1` had a melting point of 255 to 257 °C.

The compound `COC(=O)C1(S(=O)(=O)N2CC=C(c3ccc(-c4ccccc4)c(C)c3)CC2)CCOCC1` came in with a melting point of 117 to 119 °C.

As to `CC(c1ccccc1)n1c(N)c(C#N)c2c1CCCC2` (stereo unspecified), the melting point was found to be 129 °C.

In turn, `O=C(O)c1ccc(OCCCOc2ccccc2)cc1C(=O)O` had a melting point of 155 to 159 °C.

As for `CCN1CCCC1CNC(=O)c1cc(S(N)(=O)=O)cc2c1OCCO2` (stereo unspecified), the melting point was in the range of 160 to 161 °C.

For `Cc1noc(NC(=O)N2CCN(c3ccnc(-c4ccc(F)cc4F)c3)CC2)c1C`, the melting point is 234 to 235 °C.

`CC(C)COc1ccccc1-c1ncc(C(N)=O)c(=O)[nH]1` had a melting point of 230 to 231 °C.

With `COc1ccc([N+](=O)[O-])c(N2CCCC2)c1`, the melting point lay within 46 to 48.5 °C.

Compound `c1ccc2c(c1)N(CC1CCCCC1)CC21COc2cc3c(cc21)OCO3` (stereo unspecified) returned a melting point of 153 to 154 °C.

`N#Cc1cnn(-c2ccc(Cl)c(Cl)c2Cl)c1NCCO` displayed a melting point of 197 to 199 °C.

The compound `CCCOc1ncc(I)cc1-c1nc2c(CC)nn(CCN3CCOCC3)c2c(=O)[nH]1` showed a melting point of 175 to 177 °C.

In the case of `COc1ccc(C)cc1NC(=O)Nc1ccc2c(c1)CCN(C(=O)Oc1ccc(C(=O)O)cc1Cl)C2`, the melting point was 196 to 198 °C.

`Cn1nnnc1CO/N=C(\C(=O)O)c1csc(N)n1` gave a melting point of 185 °C.

`COc1cc(C(=O)O)cc2ccc(-c3ccc4c(c3)C(C)(C)CCC4(C)C)cc12` returned a melting point of 242 °C.

In turn, `CSC(=S)NN=Cc1nc(-c2ccccc2)[nH]c1C` came in with a melting point of 180 to 185 °C.

For `CC(=O)OC1CC2=CCC3C4CCC(C(C)CS(=O)(=O)c5ccccc5)C4(C)CCC3C2(C)C(OC(C)=O)C1` (stereo unspecified), the melting point stood at 104 °C.

Consider `O=c1[nH]c2cc(Cl)ccc2c(O)c1Sc1ccc([N+](=O)[O-])cc1`, for which the melting point was above 300 °C.

The compound `Nc1ccccc1NC(=O)c1cc2cc(OCCN3CCOCC3)ccc2s1` registered a melting point of 166 to 169 °C.

As for `O=C1NC(=O)C(Cc2ccccc2)N1` (stereo unspecified), the melting point was in the range of 187 to 189 °C.

Turning to `CC1(C)CCCSc2cc(Br)ccc21`, the melting point lay within 81 to 82 °C.

Consider `COC(=O)c1cc(CCNC(=O)C(F)(F)F)ccc1OC`, for which the melting point lay in the range of 61 to 63 °C.

Consider `CCC(=O)NCc1ccc2ccn(C3CCN(CCc4ccc(F)cc4)CC3)c2c1`, for which the melting point fell in the range of 141 to 142 °C.

On to `Cc1ccccc1-c1ccc(C(=O)N2Cc3ccc(C(=O)NC(C)CCc4ccccc4)n3Cc3ccccc32)cc1C` (stereo unspecified), for which the melting point is 152 to 154 °C.

The compound `CN(CC(=O)O)C(=O)C(C)(C)Oc1ccc(C(=O)c2ccc(Cl)cc2)cc1` had a melting point of 186 to 187 °C.

Regarding `Nc1nc(Cl)cc(OC(F)(F)F)n1`, the melting point was 55 to 56 °C.

Regarding `COc1cc2c(cc1N)CCCC2`, the melting point is 121 °C.

`O=C(NS(=O)(=O)C=Cc1ccc([N+](=O)[O-])cc1)c1ccccc1`: the melting point lay in the range of 192 to 195 °C.

The compound `Oc1ccccc1C=NCCN=Cc1ccccc1O` registered a melting point of 126 °C.

On to `Cc1oc(C2CCCCC2)nc1C(=O)O`, for which the melting point is 173 to 174 °C.

The compound `CCOP(=O)(O)C(=Nc1ccc(-c2c[nH]cn2)cc1)NCCSC` displayed a melting point of 240 to 241 °C.

For `CCCc1nc(C)cn1-c1nc(OC)ccc1[N+](=O)[O-]`, the melting point lay in the range of 96 to 103 °C.

As for `CN(C)C(=O)C(OCc1ccc(-c2ccc(Cl)cc2)cc1)C(F)(F)F` (stereo unspecified), the melting point was in the range of 103 to 107 °C.

Compound `NC1=NC(N)(c2ccc(S(=O)(=O)NN3CCOCC3)cc2)NC=N1` (stereo unspecified) gave a melting point above 260 °C.

The compound `COc1cc(OC)nc(NC(=O)NS(=O)(=O)N=CN(CSC)OC)n1` gave a melting point of 165 to 167 °C.

Compound `CCN(CC)CCN1C(=O)Nc2ccccc2C1c1cccc(O)c1` (stereo unspecified) had a melting point of 208 to 210 °C.

The compound `CCCCCCCCCCN=C=O` had a melting point of 110 to 112 °C.
